The test system of one assay is K562. Kind of assay: Antiproliferative activity against human K562 cells by Cell-titer blue assay. Format: functional, cell-based.
Assay [1] deals with Mycobacterium tuberculosis. Kind of assay: Antitubercular activity against Mycobacterium tuberculosis H37Rv by MABA method. Type of assay: functional. (In general: Resazurin is reduced to fluorescent resorufin, in cell work by metabolically active cells.)
Another assay deals with HUVEC. Description: Antiproliferative activity against HUVEC cells by Cell-titer blue assay. Type of assay: functional, cell-based. Conditions: Homo sapiens.
Assay [2] relates to HeLa. Kind of assay: Cytotoxic activity against human HeLa cells by Cell-titer blue assay. Type of assay: functional, cell-based.
In assay [3] the test system is HeLa. Description: Cytostatic activity against human HeLa cells at 1 to 50 uM by Cell-titer blue assay. Type of assay: functional, cell-based.

The IC50 is the concentration needed to halve the response being measured. As a reminder, the MIC is the lowest concentration found to suppress growth.

Structures are written as SMILES. Values after ≈ are worked out from the molar mass of the structure shown. Active and inactive are the calls of the source. The calls are words filed in the database; no cut-off is given here.

Consider `CC(=O)O[C@@H]1C(=O)C=COC=C1COC(=O)c1ccccc1`, for which the 50% inhibitory concentration (IC50) in the assay with K562 was 7.9 µM; in the assay with HUVEC, 9.9 µM; in the assay on HeLa [2], 25.5 µM. This molecule showed a minimum inhibitory concentration (MIC) in assay [1] of 25 µM (≈ 7.56 µg/mL).

For the molecule `O=C(OC/C=C\[C@H](Cl)[C@@](O)(CO)COC(=O)c1ccccc1)c1ccccc1` (relative stereo), the half-inhibitory concentration (IC50) with K562, in the assay with HUVEC and with HeLa [2] was more than 45 µM throughout. In addition, in assay [1], the lowest concentration to inhibit growth (MIC) was 38 µM (≈ 15.4 µg/mL).

On to `CC(=O)OC/C(=C\[C@@H](Cl)[C@H](O)COC(=O)c1ccccc1)COC(=O)c1ccccc1`, for which, in the assay on HeLa [3], the result was Active. For the same molecule, in assay [1], it took 26 µM (≈ 11.6 µg/mL) to inhibit growth (MIC).

The values are drawn from ChEMBL document CHEMBL4130573, “Antitubercular and Cytotoxic Chlorinated seco-Cyclohexenes from Uvaria alba” (J Nat Prod, 2017).
